According to US20250115600A1, “COVALENT MODIFIERS OF AKT1 AND USES THEREOF” (Terremoto Biosciences, Inc., priority 2022, published 2025):

How the values were obtained:
Experiment in all cases: Live cell target engagement (NanoBRET) in HEK293 cells
Type in all cases: cell-based
AKT1 WT = AKT1 WT (Homo sapiens (Human), UniProt P31749); settings: HEK293, 2 hours at 37° C.
AKT1 E17K = AKT1 E17K (Homo sapiens (Human), UniProt P31749, E17K); settings: for IC50: HEK293, 2 hours at 37° C.
AKT2 = AKT2 (Homo sapiens (Human), UniProt P31751); settings: HEK293, 2 hours at 37° C.
Chain of AKT2 (P31751 whole entry): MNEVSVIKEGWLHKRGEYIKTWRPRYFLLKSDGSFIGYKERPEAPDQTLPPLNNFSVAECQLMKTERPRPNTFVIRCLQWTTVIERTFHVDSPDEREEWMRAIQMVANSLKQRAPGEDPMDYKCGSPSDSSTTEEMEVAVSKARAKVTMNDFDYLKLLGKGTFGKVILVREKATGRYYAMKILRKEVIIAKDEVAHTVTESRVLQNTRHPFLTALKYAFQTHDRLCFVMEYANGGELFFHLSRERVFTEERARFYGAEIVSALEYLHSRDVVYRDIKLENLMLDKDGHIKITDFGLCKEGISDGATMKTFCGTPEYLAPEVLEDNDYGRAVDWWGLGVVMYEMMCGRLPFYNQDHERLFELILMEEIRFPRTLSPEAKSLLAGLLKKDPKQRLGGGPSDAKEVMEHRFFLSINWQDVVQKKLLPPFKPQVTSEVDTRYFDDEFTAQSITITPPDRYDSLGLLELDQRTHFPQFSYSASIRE

Chain of AKT1 E17K (P31749 whole entry E17K): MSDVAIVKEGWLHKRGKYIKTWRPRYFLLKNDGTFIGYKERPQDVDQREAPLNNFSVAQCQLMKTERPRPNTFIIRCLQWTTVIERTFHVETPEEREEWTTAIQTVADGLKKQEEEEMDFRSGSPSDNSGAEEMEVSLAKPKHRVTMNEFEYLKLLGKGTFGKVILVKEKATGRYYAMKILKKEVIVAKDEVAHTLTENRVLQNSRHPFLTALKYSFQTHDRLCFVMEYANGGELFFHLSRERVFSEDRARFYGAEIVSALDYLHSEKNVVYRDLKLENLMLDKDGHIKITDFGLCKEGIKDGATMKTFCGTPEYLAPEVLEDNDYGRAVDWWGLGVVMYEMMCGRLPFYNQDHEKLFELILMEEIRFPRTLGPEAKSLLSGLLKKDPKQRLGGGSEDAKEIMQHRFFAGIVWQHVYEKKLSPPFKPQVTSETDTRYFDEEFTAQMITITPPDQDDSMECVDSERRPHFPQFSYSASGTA
Chain of AKT1 WT (P31749 whole entry): as the sequence (P31749 whole entry E17K) above, with K17E counted along it

## Nc1ncccc1-c1nc2ccc(-c3cccc(N4CCOCC4)c3)nc2n1-c1ccc(CNC(=O)c2cc(F)c(O)c(C=O)c2)cc1 [Example 12, N-(4-(2-(2-aminopyridin-3-yl)-5-(3-morpholinophenyl)-3H-imidazo[4,5-b]pyridin-3-yl)benzyl)-3-fluoro-5-formyl-4-hydroxybenzamide]
AKT1 WT
  IC50: < 100 nM
AKT1 E17K
  AKT1 E17K IC50: Selectivity vs AKT1 WT: 1.5
  AKT1 E17K IC50: Selectivity vs AKT2: 5.2
  IC50: < 100 nM
AKT2
  IC50: 100 to 500 nM

## Nc1ncccc1-c1nc2ccc(-c3ccccc3)nc2n1-c1ccc(C(CO)NC(=O)Cc2ccc(C=O)c(O)c2F)cc1 (stereo not drawn) [Compound 30, N-(1-(4-(2-(2-aminopyridin-3-yl)-5-phenyl-3H-imidazo[4,5-b]pyridin-3-yl)phenyl)-2-hydroxyethyl)-2-(2-fluoro-4-formyl-3-hydroxyphenyl)acetamide]
AKT1 WT
  IC50: 100 to 500 nM
AKT1 E17K
  AKT1 E17K IC50: Selectivity vs AKT1 WT: 1.9
  AKT1 E17K IC50: Selectivity vs AKT2: 6.2
  IC50: < 100 nM
AKT2
  IC50: > 500 nM

## Nc1ncccc1-c1nc2cccnc2n1-c1ccc(CNC(=O)c2ccc(C=O)c(O)c2)cc1 [Compound 84, N-({4-[2-(2-aminopyridin-3-yl)imidazo[4,5-b]pyridin-3-yl]phenyl}methyl)-4-formyl-3-hydroxybenzamide]
AKT1 WT
  IC50: 100 to 500 nM
AKT1 E17K
  AKT1 E17K IC50: Selectivity vs AKT1 WT: 0.22
  AKT1 E17K IC50: Selectivity vs AKT2: 4.8
  IC50: > 500 nM
AKT2
  IC50: > 500 nM

## Nc1ncccc1-c1nc2ccc(-c3ccccc3)nc2n1-c1ccc(CNCCc2ccc(C=O)c(O)c2Cl)cc1 [Compound 120, 4-{2-[({4-[2-(2-aminopyridin-3-yl)-5-phenylimidazo[4,5-b]pyridin-3-yl]phenyl}methyl)amino]ethyl}-3-chloro-2-hydroxybenzaldehyde]
AKT1 WT
  IC50: < 100 nM
AKT1 E17K
  AKT1 E17K IC50: Selectivity vs AKT1 WT: 0.86
  AKT1 E17K IC50: Selectivity vs AKT2: 2.3
  IC50: < 100 nM
AKT2
  IC50: 100 to 500 nM

## Nc1ncccc1-c1nc2ccc(-c3cccnc3)nc2n1-c1ccc(CNC(=O)C2(c3ccc(C=O)c(O)c3)CC2)cc1 [Compound 70, N-({4-[2-(2-aminopyridin-3-yl)-5-(pyridin-3-yl)imidazo[4,5-b]pyridin-3-yl]phenyl}methyl)-1-(4-formyl-3-hydroxyphenyl)cyclopropane-1-carboxamide]
AKT1 WT
  IC50: 100 to 500 nM
AKT1 E17K
  AKT1 E17K IC50: Selectivity vs AKT1 WT: 7.7
  AKT1 E17K IC50: Selectivity vs AKT2: 65
  IC50: < 100 nM
AKT2
  IC50: > 500 nM

## Nc1ncccc1-c1nc2ccc(C3CC3)nc2n1-c1ccc(CNC(=O)Cc2ccc(C=O)c(O)c2)cc1 [Compound 66, N-({4-[2-(2-aminopyridin-3-yl)-5-cyclopropylimidazo[4,5-b]pyridin-3-yl]phenyl}methyl)-2-(4-formyl-3-hydroxyphenyl)acetamide]
AKT1 WT
  IC50: < 100 nM
AKT1 E17K
  AKT1 E17K IC50: Selectivity vs AKT1 WT: 3.5
  AKT1 E17K IC50: Selectivity vs AKT2: 830
  IC50: < 100 nM
AKT2
  IC50: > 500 nM

## Nc1ncccc1-c1nc2ccc(-c3ccccc3)nc2n1-c1ccc(CNC(=O)c2cc(C=O)c(O)cc2F)cc1 [Example 4, N-({4-[2-(2-aminopyridin-3-yl)-5-phenylimidazo[4,5-b]pyridin-3-yl]phenyl}methyl)-2-fluoro-5-formyl-4-hydroxybenzamide]
AKT1 WT
  IC50: < 100 nM
AKT1 E17K
  AKT1 E17K IC50: Selectivity vs AKT1 WT: 2
  AKT1 E17K IC50: Selectivity vs AKT2: 38
  IC50: < 100 nM
AKT2
  IC50: > 500 nM

## Nc1ncccc1-c1nc2ccc(-c3ccccc3)nc2n1-c1ccc(C2(NCCc3ccc(C=O)c(O)c3)CCC2)cc1 [Compound 134, 4-(2-((1-(4-(2-(2-aminopyridin-3-yl)-5-phenyl-3H-imidazo[4,5-b]pyridin-3-yl)phenyl)cyclobutyl)amino)ethyl)-2-hydroxybenzaldehyde]
AKT1 WT
  IC50: > 500 nM
AKT1 E17K
  AKT1 E17K IC50: Selectivity vs AKT1 WT: 2.3
  AKT1 E17K IC50: Selectivity vs AKT2: 4.3
  IC50: > 500 nM
AKT2
  IC50: > 500 nM

## Nc1ncccc1-c1nc2ccc(-c3ccccc3)nc2n1-c1ccc(CCNCCc2ccc(C=O)c(O)c2)cc1 [Compound 36, 4-(2-((4-(2-(2-aminopyridin-3-yl)-5-phenyl-3H-imidazo[4,5-b]pyridin-3-yl)phenethyl)amino)ethyl)-2-hydroxybenzaldehyde]
AKT1 WT
  IC50: < 100 nM
AKT1 E17K
  AKT1 E17K IC50: Selectivity vs AKT1 WT: 2
  AKT1 E17K IC50: Selectivity vs AKT2: 9.2
  IC50: < 100 nM
AKT2
  IC50: 100 to 500 nM

## Nc1ncccc1-c1nc2cccnc2n1-c1ccc(CNC(=O)Cc2ccc(C=O)c(NC(=O)C3CC3)c2)cc1 [Compound 48, N-(5-(2-((4-(2-(2-aminopyridin-3-yl)-3H-imidazo[4,5-b]pyridin-3-yl)benzyl)amino)-2-oxoethyl)-2-formylphenyl)cyclopropanecarboxamide]
AKT1 WT
  IC50: 100 to 500 nM
AKT1 E17K
  AKT1 E17K IC50: Selectivity vs AKT1 WT: 8.5
  AKT1 E17K IC50: Selectivity vs AKT2: 120
  IC50: < 100 nM
AKT2
  IC50: > 500 nM

## Nc1ncccc1-c1nc2ccc(-c3ccc(N4CCOCC4)cc3)nc2n1-c1ccc(CNC(=O)Cc2ccc(C=O)c(O)c2)cc1 [Example 1, N-(4-(2-(2-aminopyridin-3-yl)-5-(4-morpholinophenyl)-3H-imidazo[4,5-b]pyridin-3-yl)benzyl)-2-(4-formyl-3-hydroxyphenyl)acetamide]
AKT1 WT
  IC50: < 100 nM
AKT1 E17K
  AKT1 E17K IC50: Selectivity vs AKT1 WT: 6.1
  AKT1 E17K IC50: Selectivity vs AKT2: 85
  IC50: < 100 nM
AKT2
  IC50: > 500 nM

## Nc1ncccc1-c1nc2ccc(-c3ccccc3)nc2n1-c1ccc(CNCCc2cc(O)c(C=O)cc2F)cc1 [Compound 128, 4-(2-((4-(2-(2-aminopyridin-3-yl)-5-phenyl-3H-imidazo[4,5-b]pyridin-3-yl)benzyl)amino)ethyl)-5-fluoro-2-hydroxybenzaldehyde]
AKT1 WT
  IC50: < 100 nM
AKT1 E17K
  AKT1 E17K IC50: Selectivity vs AKT1 WT: 0.15
  AKT1 E17K IC50: Selectivity vs AKT2: 0.93
  IC50: 100 to 500 nM
AKT2
  IC50: 100 to 500 nM

## Nc1ncccc1-c1nc2ccc(-c3cccnc3)nc2n1-c1ccc(CNC(=O)C2(c3ccc(C=O)c(O)c3F)CC2)cc1 [Compound 67, N-(4-(2-(2-aminopyridin-3-yl)-5-(pyridin-3-yl)-3H-imidazo[4,5-b]pyridin-3-yl)benzyl)-1-(2-fluoro-4-formyl-3-hydroxyphenyl)cyclopropane-1-carboxamide]
AKT1 WT
  IC50: > 500 nM
AKT1 E17K
  AKT1 E17K IC50: Selectivity vs AKT1 WT: 27
  AKT1 E17K IC50: Selectivity vs AKT2: >240
  IC50: < 100 nM
AKT2
  IC50: > 500 nM

## CN(CCc1ccc(-n2c(-c3cccnc3N)nc3ccc(-c4ccccc4)nc32)cc1)Cc1ccc(C=O)c(O)c1 [Compound 39, 4-{[(2-{4-[2-(2-aminopyridin-3-yl)-5-phenylimidazo[4,5-b]pyridin-3-yl]phenyl}ethyl)(methyl)amino]methyl}-2-hydroxybenzaldehyde]
AKT1 WT
  IC50: 100 to 500 nM
AKT1 E17K
  AKT1 E17K IC50: Selectivity vs AKT1 WT: 1.5
  AKT1 E17K IC50: Selectivity vs AKT2: 5.2
  IC50: < 100 nM
AKT2
  IC50: 100 to 500 nM

## Nc1ncccc1-c1nc2ccc(N3CC4CCC(C3)O4)nc2n1-c1ccc(CNC(=O)Cc2ccc(C=O)c(O)c2)cc1 [Example 8, N-({4-[2-(2-aminopyridin-3-yl)-5-{8-oxa-3-azabicyclo[3.2.1]octan-3-yl}imidazo[4,5-b]pyridin-3-yl]phenyl}methyl)-2-(4-formyl-3-hydroxyphenyl)acetamide]
AKT1 WT
  IC50: 100 to 500 nM
AKT1 E17K
  AKT1 E17K IC50: Selectivity vs AKT1 WT: 12
  AKT1 E17K IC50: Selectivity vs AKT2: 120
  IC50: < 100 nM
AKT2
  IC50: > 500 nM

## Nc1ncccc1-c1nc2ccc(-c3ccccc3)nc2n1-c1ccc(C(=O)NCc2ccc(C=O)c(O)c2)cc1 [Compound 137, 4-(2-(2-aminopyridin-3-yl)-5-phenyl-3H-imidazo[4,5-b]pyridin-3-yl)-N-(4-formyl-3-hydroxybenzyl)benzamide]
AKT1 WT
  IC50: < 100 nM
AKT1 E17K
  AKT1 E17K IC50: Selectivity vs AKT1 WT: 0.91
  AKT1 E17K IC50: Selectivity vs AKT2: 4.1
  IC50: < 100 nM
AKT2
  IC50: 100 to 500 nM

## Nc1ncccc1-c1nc2ccc(-c3ccccc3)nc2n1-c1ccc(CNc2cc(-c3ccc(C=O)c(O)c3)ccn2)cc1 [Compound 87, 4-(2-((4-(2-(2-aminopyridin-3-yl)-5-phenyl-3H-imidazo[4,5-b]pyridin-3-yl)benzyl)amino)pyridin-4-yl)-2-hydroxybenzaldehyde]
AKT1 WT
  IC50: > 500 nM
AKT1 E17K
  AKT1 E17K IC50: Selectivity vs AKT1 WT: 0.72
  AKT1 E17K IC50: Selectivity vs AKT2: 1.6
  IC50: > 500 nM
AKT2
  IC50: > 500 nM

## C[C@@H](NCCc1ccc(O)c(C=O)c1)c1ccc(-n2c(-c3cccnc3N)nc3ccc(-c4ccccc4)nc32)cc1 [Compound 105, (R)-5-(2-((1-(4-(2-(2-aminopyridin-3-yl)-5-phenyl-3H-imidazo[4,5-b]pyridin-3-yl)phenyl)ethyl)amino)ethyl)-2-hydroxybenzaldehyde]
AKT1 WT
  IC50: > 500 nM
AKT1 E17K
  AKT1 E17K IC50: Selectivity vs AKT1 WT: 1
  AKT1 E17K IC50: Selectivity vs AKT2: >1.0
  IC50: > 500 nM
AKT2
  IC50: > 500 nM

## Nc1ncccc1-c1nc2ccc(-c3cccc(N4CCOCC4)c3)nc2n1-c1ccc(CNCCc2ccc(C=O)c(O)c2)cc1 [Compound 108, 4-(2-((4-(2-(2-aminopyridin-3-yl)-5-(3-morpholinophenyl)-3H-imidazo[4,5-b]pyridin-3-yl)benzyl)amino)ethyl)-2-hydroxybenzaldehyde]
AKT1 WT
  IC50: < 100 nM
AKT1 E17K
  AKT1 E17K IC50: Selectivity vs AKT1 WT: 1.2
  AKT1 E17K IC50: Selectivity vs AKT2: 2.1
  IC50: < 100 nM
AKT2
  IC50: < 100 nM

## COc1ccc2nc(-c3cccnc3N)n(-c3ccc(CNC(=O)Cc4ccc(C=O)c(O)c4)cc3)c2n1 [Compound 33, N-(4-(2-(2-aminopyridin-3-yl)-5-methoxy-3H-imidazo[4,5-b]pyridin-3-yl)benzyl)-2-(4-formyl-3-hydroxyphenyl)acetamide]
AKT1 WT
  IC50: 100 to 500 nM
AKT1 E17K
  AKT1 E17K IC50: Selectivity vs AKT1 WT: 23
  AKT1 E17K IC50: Selectivity vs AKT2: 400
  IC50: < 100 nM
AKT2
  IC50: > 500 nM

## Nc1ncccc1-c1nc2ccc(-c3cccnc3)nc2n1-c1ccc(CNC(=O)Cc2ccc(C=O)c(O)c2F)cc1 [Compound 79, N-({4-[2-(2-aminopyridin-3-yl)-5-(pyridin-3-yl)imidazo[4,5-b]pyridin-3-yl]phenyl}methyl)-2-(2-fluoro-4-formyl-3-hydroxyphenyl)acetamide]
AKT1 WT
  IC50: < 100 nM
AKT1 E17K
  AKT1 E17K IC50: Selectivity vs AKT1 WT: 4.4
  AKT1 E17K IC50: Selectivity vs AKT2: 88
  IC50: < 100 nM
AKT2
  IC50: > 500 nM
